Key:
Mus musculus [1] = test: Dopaminergic activity in CD1 mouse tuberculum olfactorium assessed as dopamine turn over at 3.29 umol/kg, sc relative to control; type: functional
D(2) dopamine receptor = D(2) dopamine receptor (Rattus norvegicus, UniProt P61169); test: Displacement of [3H]spiperone from rat dopamine D2 receptor in brain striatal membrane; type: cell membranes
D(3) dopamine receptor = D(3) dopamine receptor (Rattus norvegicus, UniProt P19020); test: biochemical
Description: Displacement of [3H]spiperone from rat recombinant dopamine D3 receptor expressed in SF9 cells

Mus musculus [2] = test: Dopaminergic activity in CD1 mouse striatum assessed as dopamine turn over at 3.29 umol/kg, sc relative to control; type: functional

Sequence of D(2) dopamine receptor (P61169 whole entry): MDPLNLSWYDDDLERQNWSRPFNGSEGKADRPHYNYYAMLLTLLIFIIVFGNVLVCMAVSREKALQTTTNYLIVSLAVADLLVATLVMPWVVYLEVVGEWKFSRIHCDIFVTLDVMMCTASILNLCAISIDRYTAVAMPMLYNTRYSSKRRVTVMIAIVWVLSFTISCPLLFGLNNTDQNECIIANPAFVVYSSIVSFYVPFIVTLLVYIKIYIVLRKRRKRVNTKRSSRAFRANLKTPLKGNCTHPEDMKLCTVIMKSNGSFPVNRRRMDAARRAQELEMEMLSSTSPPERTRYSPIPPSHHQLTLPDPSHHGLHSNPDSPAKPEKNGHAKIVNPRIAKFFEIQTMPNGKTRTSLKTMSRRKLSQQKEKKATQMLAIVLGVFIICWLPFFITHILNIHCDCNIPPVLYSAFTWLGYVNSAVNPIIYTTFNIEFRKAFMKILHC
Sequence of D(3) dopamine receptor (P19020 whole entry): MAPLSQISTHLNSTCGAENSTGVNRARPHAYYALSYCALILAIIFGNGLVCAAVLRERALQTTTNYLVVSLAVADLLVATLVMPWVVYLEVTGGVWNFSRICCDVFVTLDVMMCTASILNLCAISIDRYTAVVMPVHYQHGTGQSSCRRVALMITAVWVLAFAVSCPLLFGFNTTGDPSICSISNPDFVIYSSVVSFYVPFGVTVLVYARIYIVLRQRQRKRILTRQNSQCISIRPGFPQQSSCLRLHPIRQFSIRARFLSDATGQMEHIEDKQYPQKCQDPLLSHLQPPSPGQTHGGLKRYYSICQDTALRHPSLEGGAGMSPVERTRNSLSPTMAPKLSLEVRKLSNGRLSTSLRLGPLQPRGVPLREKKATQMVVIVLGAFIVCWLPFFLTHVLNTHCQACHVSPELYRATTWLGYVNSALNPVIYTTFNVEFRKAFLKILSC

Structure (SMILES) | Activity (Mus musculus [1]) [%] | IC50 (D(2) dopamine receptor) [µM] | Ki (D(2) dopamine receptor) [µM] | IC50 (D(3) dopamine receptor) [µM] | Ki (D(3) dopamine receptor) [µM] | Activity (Mus musculus [2]) [%]
CN(C)c1ccc(-c2cc3c4c(c2)-c2c(ccc(O)c2O)C[C@H]4N(C)CC3)cc1.Cl.Cl | 84.5 | 0.484 | 0.242 | 0.178 | 0.0784 | 52.3
CN1CCc2cc(-c3ccccc3)cc3c2[C@H]1Cc1ccc(O)c(O)c1-3.Cl | 50.9 | 0.0233 | 0.0117 | 0.0147 | 0.0077 | 44.2
CN1CCc2cc(-c3ccc(O)cc3)cc3c2[C@H]1Cc1ccc(O)c(O)c1-3.Cl | 39.6 | 0.0085 | 0.00414 | 0.0037 | 0.00178 | 43.6
CN1CCc2cc(-c3cccc4c3oc3ccccc34)cc3c2[C@H]1Cc1ccc(O)c(O)c1-3.Cl | 106.1 | 3.26 | 1.63 | 0.0494 | 0.0223 | 92
Cc1cc2c3c(c1)-c1c(ccc(O)c1O)C[C@H]3N(C)CC2.Cl | 43.6 | 0.043 | 0.0207 | 0.0826 | 0.0401 | 42.3
CN1CCc2cccc3c2[C@H]1Cc1ccc(O)c(O)c1-3.CN1CCc2cccc3c2[C@H]1Cc1ccc(O)c(O)c1-3.Cl.Cl.O [APOMORPHINE HYDROCHLORIDE] | 57.7 |  |  |  |  | 48.6

From ChEMBL document CHEMBL1157158, “Synthesis and neuropharmacological evaluation of 2-aryl- and alkylapomorphines” (Bioorg Med Chem, 2008)
